The results in this text go back to patent US20180265515A1 (Genentech, Inc., priority 2015, published 2018).

Molecules are shown by their SMILES.

The target of test [1] is T1, isolated recombinant JAK1 kinase domain (Homo sapiens, UniProt P23458).
T1 construct: The activity of the isolated recombinant JAK1 and JAK2 kinase domain was measured
Briefly: JAK1 enzyme assay (Caliper LabChip, Ki). Type of test: biochemical. The conditions noted are these: recombinant JAK1 kinase domain, 25 μM ATP. The method in brief: (§1)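 Recombinant JAK1 or JAK2 kinase domain phosphorylating a 5-carboxyfluorescein-labelled JAK3-derived peptide, 30 min at 22° C, stopped with EDTA. Phosphorylated fraction of substrate quantified by Caliper LabChip microfluidic separation. Ki from Morrison tight-binding model corrected for ATP competition (Ki=Ki,app/(1+[ATP]/Km,app)).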

For test [2], the target named is T2, isolated recombinant JAK2 kinase domain (Homo sapiens, UniProt O60674).
T2 construct: The activity of the isolated recombinant JAK1 and JAK2 kinase domain was measured
T2 sequence (O60674 849-1124 limits assumed): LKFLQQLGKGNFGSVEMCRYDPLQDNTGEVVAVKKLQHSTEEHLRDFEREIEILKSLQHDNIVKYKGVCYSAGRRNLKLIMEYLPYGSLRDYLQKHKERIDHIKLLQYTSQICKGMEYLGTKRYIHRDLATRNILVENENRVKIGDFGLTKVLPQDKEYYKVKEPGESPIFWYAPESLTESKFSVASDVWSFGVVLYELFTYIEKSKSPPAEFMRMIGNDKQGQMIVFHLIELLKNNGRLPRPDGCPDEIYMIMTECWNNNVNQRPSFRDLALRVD
Briefly: JAK2 enzyme assay (Caliper LabChip, Ki). The conditions noted are these: 25 μM ATP. The format is biochemical. In short, it runs like this:
as §1

Test [3] concerns JAK1-dependent STAT6 phosphorylation downstream of IL-13 stimulation in BEAS-2B human bronchial epithelial cells. Briefly: JAK1 pathway assay in BEAS-2B cells (IL-13 stimulated STAT6 phosphorylation, MSD). Type of test: cell-based. The following applies: read-out: P-STAT6 BEAS2B + IL13 IC50. In short, it runs like this: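 BEAS-2B human bronchial epithelial cells, plated the day before in complete growth medium, were preincubated with compound for 1 hr at 37° C (0.2% DMSO final), then stimulated with IL-13 at its EC90 for 15 min. STAT6 phosphorylation in lysates was read by MSD; EC50 was taken as 50% inhibition versus DMSO control.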

T1 sequence (P23458 875-1153 limits assumed): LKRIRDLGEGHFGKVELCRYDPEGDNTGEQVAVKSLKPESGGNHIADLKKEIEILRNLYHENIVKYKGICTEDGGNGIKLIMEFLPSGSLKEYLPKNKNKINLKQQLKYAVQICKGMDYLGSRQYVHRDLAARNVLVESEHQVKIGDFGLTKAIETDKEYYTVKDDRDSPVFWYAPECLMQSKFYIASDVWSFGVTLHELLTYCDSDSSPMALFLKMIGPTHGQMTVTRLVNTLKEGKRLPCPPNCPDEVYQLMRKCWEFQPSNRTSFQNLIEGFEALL

By Ki is commonly meant a measure of affinity in units of concentration, obtained from inhibition or displacement. What is called IC50 is the concentration that inhibits the measured activity by half. As for `CC(C)(C#N)CNC1CCN(C(=O)Cn2cc(NC(=O)c3cnn4cccnc34)c(-c3cc(SC4COC4)ccc3OC(F)F)n2)CC1` [Example 186, N-[1-[2-[4-[(2-cyano-2-methyl-propyl)amino]-1-piperidyl]-2-oxo-ethyl]-3-[2-(difluoromethoxy)-5-(oxetan-3-ylsulfanyl)phenyl]pyrazol-4-yl]pyrazolo[1,5-a]pyrimidine-3-carboxamide], the Ki stood at 0.65 nM in test [1] and 1.8 nM in test [2]. In addition, the IC50 in test [3] worked out at 90 nM.

Consider `CN(C1CCN(C(=O)Cn2cc(NC(=O)c3cnn4cccnc34)c(-c3cc(SC4COC4)ccc3OC(F)F)n2)CC1)C1COC1` [Example 187, N-[3-[2-(difluoromethoxy)-5-(oxetan-3-ylsulfanyl)phenyl]-1-[2-[4-[methyl(oxetan-3-yl)amino]-1-piperidyl]-2-oxo-ethyl]pyrazol-4-yl]pyrazolo[1,5-a]pyrimidine-3-carboxamide], for which the values for the inhibition constant Ki in test [1] and in test [2] were 0.54 nM and 1.3 nM, respectively. Moreover, in test [3], the IC50 is 250 nM.

Regarding `O=C(Nc1cn(CC(=O)N2CCN(CC3CCOCC3)CC2)nc1-c1cc(SC2COC2)ccc1OC(F)F)c1cnn2cccnc12` [Example 188, N-[3-[2-(difluoromethoxy)-5-(oxetan-3-ylsulfanyl)phenyl]-1-[2-oxo-2-[4-(tetrahydropyran-4-ylmethyl)piperazin-1-yl]ethyl]pyrazol-4-yl]pyrazolo[1,5-a]pyrimidine-3-carboxamide], the values for the inhibition constant (Ki) in test [1] and in test [2] were 0.62 nM and 1.3 nM, respectively. For the same compound, the IC50 in test [3] is 48 nM.

With `N#CC1(CNC2CCN(C(=O)Cn3cc(NC(=O)c4cnn5cccnc45)c(-c4cc(SC5COC5)ccc4OC(F)F)n3)CC2)CC1` [Example 189, N-[1-[2-[4-[(1-cyanocyclopropyl)methylamino]-1-piperidyl]-2-oxo-ethyl]-3-[2-(difluoromethoxy)-5-(oxetan-3-ylsulfanyl)phenyl]pyrazol-4-yl]pyrazolo[1,5-a]pyrimidine-3-carboxamide], the Ki is 1 nM in test [1] and 3 nM in test [2]. Moreover, the IC50 in test [3] was 770 nM.

Consider `CN1CCN(C2CCN(C(=O)Cn3cc(NC(=O)c4cnn5cccnc45)c(-c4cc(SC5COC5)ccc4OC(F)F)n3)CC2)CC1` [Example 190, N-[3-[2-(difluoromethoxy)-5-(oxetan-3-ylsulfanyl)phenyl]-1-[2-[4-(4-methylpiperazin-1-yl)-1-piperidyl]-2-oxo-ethyl]pyrazol-4-yl]pyrazolo[1,5-a]pyrimidine-3-carboxamide], for which the results for the Ki in test [1] and in test [2] were 1.1 nM and 3.8 nM, respectively. In test [3], the half-maximal inhibitory concentration (IC50) was 170 nM.

As to `COC(=O)N1CCN(CC2CCN(C(=O)Cn3cc(NC(=O)c4cnn5cccnc45)c(-c4cc(SC5COC5)ccc4OC(F)F)n3)CC2)CC1` [Example 191, methyl 4-[[1-[2-[3-[2-(difluoromethoxy)-5-(oxetan-3-ylsulfanyl)phenyl]-4-(pyrazolo[1,5-a]pyrimidine-3-carbonylamino)pyrazol-1-yl]acetyl]-4-piperidyl]methyl]piperazine-1-carboxylate], the Ki turned out to be 0.44 nM in test [1] and 1 nM in test [2]. The IC50 in test [3] was 49 nM.

As to `CCSc1ccc(OC(F)F)c(-c2n[nH]cc2NC(=O)c2cnn3cccnc23)c1` [Example 192, N-[3-[2-(difluoromethoxy)-5-ethylsulfanyl-phenyl]-1H-pyrazol-4-yl]pyrazolo[1,5-a]pyrimidine-3-carboxamide], the Ki was 0.12 nM in test [1] and 0.055 nM in test [2]. Also, the 50% inhibitory concentration (IC50) in test [3] was found to be 2 nM.

Regarding `CCSc1ccc(OC(F)F)c(-c2nn(CC(=O)N3CCC(N4CCOCC4)CC3)cc2NC(=O)c2cnn3cccnc23)c1` [Example 193], the inhibition constant Ki was determined as 0.36 nM in test [1] and 0.57 nM in test [2]. Besides, the half-inhibitory concentration (IC50) in test [3] was determined as 17 nM.
